# Results as given in patent US20080125432A1 (Devgen NV, priority 2004, published 2008).
# Experiments:
# [1] = tested on: Male mice (NRMI); assay: In vivo telemetry ECG recording in mice, intraperitoneal application; settings: consecutive dosing i.p. (3-15 μM/kg), n=5
# Protocol: Male mice (NRMI) were anesthetized with a gas mixture of isoflurane, nitrous oxide and oxigen. Leads connected to a telemetry transmitter (TA10EA-F20, DSI, St. Paul, USA) were fixed by suture in the xiphoid and ventral neck region. The telemetry transmitter was placed under the skin on the back. Wounds were closed in layers and the animals were allowed to recover for at least 1 week.
# On the day of the experiment the animals receive consecutive doses of vehicle i.p. at 60 min dosing intervals. ECG tracings (12 s duration) was recorded using the Data Sciences A.R.T. system. After completion of the experiment ECGs were analyzed automatically by Data Sciences ECG software (DSI, St. Paul, USA). QT and QRS intervals were measured manually in the stored ECGs. QTc was calculated from the QT interval and the corresponding heart rate using Bazett's formula. Heart rate was taken from the online analysis, given by the DSI Labpro and DSI A.R.T. systems (DSI, St. Paul, USA). Finally, ECG intervals were transferred to an Excel spreadsheet, checked for plausibility, and converted into 15 min averages.
# [2] = biological target: T1, INa (SCN5a) (Homo sapiens, UniProt Q14524); assay: Whole-cell patch clamp in human atrial myocytes: INa; format: cell-based; settings: n = 3 cells
# T1 construct: endogenous in cells; host or cells: freshly isolated human atrial myocytes (bypass-surgery patients)
# T1 sequence (Q14524 whole entry): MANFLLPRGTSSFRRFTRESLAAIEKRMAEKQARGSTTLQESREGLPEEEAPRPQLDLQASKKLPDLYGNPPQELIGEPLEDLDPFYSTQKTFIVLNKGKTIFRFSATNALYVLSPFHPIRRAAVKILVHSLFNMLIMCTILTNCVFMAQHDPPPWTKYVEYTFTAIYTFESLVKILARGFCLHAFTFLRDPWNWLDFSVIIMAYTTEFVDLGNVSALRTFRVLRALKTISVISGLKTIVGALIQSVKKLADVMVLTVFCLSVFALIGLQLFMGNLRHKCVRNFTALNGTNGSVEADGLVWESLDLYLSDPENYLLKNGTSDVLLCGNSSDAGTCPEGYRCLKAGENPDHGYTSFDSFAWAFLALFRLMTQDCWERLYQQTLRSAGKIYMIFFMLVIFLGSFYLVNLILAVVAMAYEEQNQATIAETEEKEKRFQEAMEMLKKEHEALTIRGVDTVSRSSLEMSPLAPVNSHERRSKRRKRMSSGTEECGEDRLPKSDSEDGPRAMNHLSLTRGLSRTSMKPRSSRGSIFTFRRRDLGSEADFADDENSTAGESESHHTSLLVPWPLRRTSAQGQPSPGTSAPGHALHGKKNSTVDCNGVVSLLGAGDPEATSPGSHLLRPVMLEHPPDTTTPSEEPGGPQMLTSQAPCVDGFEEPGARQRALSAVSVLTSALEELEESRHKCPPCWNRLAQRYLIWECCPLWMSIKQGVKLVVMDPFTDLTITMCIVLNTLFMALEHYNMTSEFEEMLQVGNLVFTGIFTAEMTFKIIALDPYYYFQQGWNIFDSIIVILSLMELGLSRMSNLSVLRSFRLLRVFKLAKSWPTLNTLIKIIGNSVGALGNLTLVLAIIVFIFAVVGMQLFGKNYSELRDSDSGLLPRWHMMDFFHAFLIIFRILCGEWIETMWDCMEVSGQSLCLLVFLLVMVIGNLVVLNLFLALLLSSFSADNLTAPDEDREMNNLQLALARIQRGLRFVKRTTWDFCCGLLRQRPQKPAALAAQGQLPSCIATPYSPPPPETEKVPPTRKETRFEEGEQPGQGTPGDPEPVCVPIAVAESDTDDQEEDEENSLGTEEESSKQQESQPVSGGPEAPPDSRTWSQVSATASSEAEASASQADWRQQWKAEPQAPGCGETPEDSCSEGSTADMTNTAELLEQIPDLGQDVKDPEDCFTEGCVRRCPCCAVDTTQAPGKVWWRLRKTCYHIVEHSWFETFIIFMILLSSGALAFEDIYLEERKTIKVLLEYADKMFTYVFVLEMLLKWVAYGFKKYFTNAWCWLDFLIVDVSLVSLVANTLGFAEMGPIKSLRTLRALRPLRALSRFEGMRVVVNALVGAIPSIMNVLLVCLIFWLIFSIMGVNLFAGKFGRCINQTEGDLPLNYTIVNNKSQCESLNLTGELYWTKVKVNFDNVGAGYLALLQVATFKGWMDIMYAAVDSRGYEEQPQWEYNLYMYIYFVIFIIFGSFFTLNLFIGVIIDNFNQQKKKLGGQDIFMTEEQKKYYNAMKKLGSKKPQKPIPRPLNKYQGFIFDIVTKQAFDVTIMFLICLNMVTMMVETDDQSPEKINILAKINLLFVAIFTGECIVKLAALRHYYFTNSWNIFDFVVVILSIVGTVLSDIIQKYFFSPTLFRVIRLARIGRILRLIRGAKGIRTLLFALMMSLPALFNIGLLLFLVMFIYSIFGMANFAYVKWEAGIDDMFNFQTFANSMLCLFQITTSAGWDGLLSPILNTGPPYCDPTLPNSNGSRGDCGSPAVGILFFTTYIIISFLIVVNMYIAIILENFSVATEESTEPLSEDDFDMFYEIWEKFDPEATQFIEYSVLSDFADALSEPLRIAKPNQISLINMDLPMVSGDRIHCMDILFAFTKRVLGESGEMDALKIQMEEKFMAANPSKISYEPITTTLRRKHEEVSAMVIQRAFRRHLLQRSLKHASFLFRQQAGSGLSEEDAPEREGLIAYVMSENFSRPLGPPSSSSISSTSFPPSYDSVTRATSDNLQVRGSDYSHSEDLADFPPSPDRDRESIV
# Protocol: The blocking profile of the compounds of the invention is determined on the following channels of the human atrial myocytes: INa, Ito, Isus and IK1 channel currents.
# Human atrial myocytes: Myocytes were prepared from specimens with grossly normal anatomical aspect, excised from hearts of patients with normal P-wave electrocardiogram, undergoing bypass surgery. Human atrial sample were obtained following approval by the ethical committee. Atrial tissue samples were quickly immersed in a cardioplegic solution (in mM: 50 KH2PO4, 8 MgSO4, 10 NaHCO3, 5 adenosine, 25 taurine, 140 glucose, and 100 mannitol, titrated to a pH of 7.4 and bubbled with 100% O2 at 0-4° C.) and rapidly delivered to the laboratory. The tissue was then minced onto 0.5-1 mm^2 chunks within 30 min after the excision procedure and transferred to a 50 ml conical tube containing wash solution deprived of Ca^2+ (in mM: 137 NaCl, KH2PO4, 1 MgSO4, 10 taurine, 10 glucose, 5 HEPES, and 100 μmol/L (µM) EGTA; pH=7.4, room temperature 22-24° C.). […]
# Experiments were performed at room temperature (20-25° C.) for INa and at 32-34° C. for Ito, Isus, IK1. Currents were measured using the whole-cell variant of the patch clamp method. […]
# Raw data and mean ±SEM are given. […] This is measured as current reduction after a steady-state effect has been reached in the presence of drug relative to current amplitude before drug was introduced (control). […]
smiles,measurement,setting,value
"COc1ccccc1Nc1nc(C)c(C(=O)N[C@H]2CCC[C@@H]2OCc2ccccc2)s1 [Compound 68, 2-(2-methoxy-phenylamino)-4-methyl-thiazole-5-carboxylic acid (1S,2S)-2-(benzyloxycyclopent-1-yl) amide]",QT and QTc intervals in the mouse ECG,[1]; 60 min dosing intervals,"significant, dose-dependent but late onset prolongation"
same,Heart rate,[1],minor and not significant decrease
same,Locomotor activity,[1],reproducible rise after each of the subsequent injections
same,PQ and QRS in the mouse ECG,[1],did not show dose-dependent changes
same,Block at 10 μM in %: INa (SCN5a),[2],0 ± 0.5%
